In US10358446B2, “Bruton's tyrosine kinase inhibitors” (Zibo Biopolar Changsheng Pharmaceutical Co. Ltd., priority 2015, dated 2019):

Biological target: BTK (Homo sapiens (Human), UniProt Q06187)
Assay: Btk kinase assay (HTRF)
Type: biochemical
Conditions: [ATP]=80 μM, BTK=3.4 nM; read-out: BTK Inhibition
Summary of the method: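 HTRF kinase read-out (665/615 nm ratio, excitation 330 nm) after EDTA quench and 1 h detection incubation. Reaction: 3.4 nM BTK, ATP 80 μM, peptide substrate 1 μM, compound, HEPES pH 7.0 buffer, 1 h; IC50 derived using uninhibited and enzyme-free controls.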

BTK, sequence (Q06187 whole entry, species assumed): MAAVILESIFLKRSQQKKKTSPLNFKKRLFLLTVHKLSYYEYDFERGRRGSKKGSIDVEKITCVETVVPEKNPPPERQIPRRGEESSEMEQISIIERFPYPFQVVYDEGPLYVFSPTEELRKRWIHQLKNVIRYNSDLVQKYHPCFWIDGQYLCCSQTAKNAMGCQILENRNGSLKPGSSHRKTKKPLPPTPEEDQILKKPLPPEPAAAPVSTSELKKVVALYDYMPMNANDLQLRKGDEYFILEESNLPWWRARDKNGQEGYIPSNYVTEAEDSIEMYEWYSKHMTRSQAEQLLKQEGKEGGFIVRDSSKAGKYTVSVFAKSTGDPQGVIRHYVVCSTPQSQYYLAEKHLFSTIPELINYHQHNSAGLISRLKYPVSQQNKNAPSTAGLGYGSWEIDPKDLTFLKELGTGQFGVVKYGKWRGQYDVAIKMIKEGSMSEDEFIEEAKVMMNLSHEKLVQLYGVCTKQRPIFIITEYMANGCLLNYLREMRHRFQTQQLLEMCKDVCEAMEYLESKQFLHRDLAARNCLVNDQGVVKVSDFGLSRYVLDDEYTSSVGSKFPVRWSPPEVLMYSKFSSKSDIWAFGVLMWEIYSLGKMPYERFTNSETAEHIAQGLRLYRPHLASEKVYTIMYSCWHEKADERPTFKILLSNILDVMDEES

SMILES	IC50 [µM]
C=CC(=O)N1CC[C@@H](n2c(=O)n(-c3ccc(Oc4ccccc4)cc3)c3c([N+](=O)[O-])cccc32)C1 [Example 189, (R)-1-(1-acryloylpyrrolidin-3-yl)-4-nitro-3-(4-phenoxyphenyl)-1H-benzo[d]imidazol-2(3H)-one]	≥ 10
C=CC(=O)N1CC[C@@H](n2c(=O)n(-c3ccc(Oc4ccccc4)cc3)c3c(N)cccc32)C1 [Example 190, (R)-1-(1-acryloylpyrrolidin-3-yl)-4-amino-3-(4-phenoxyphenyl)-1H-benzo[d]imidazol-2(3H)-one]	0.1 to 1
C=CC(=O)Nc1cccc(-n2c(=O)n(-c3ccc(OCc4ccccn4)cc3)c3cnccc32)c1 [Example 196, N-(3-(2-oxo-3-(4-(pyridin-2-ylmethoxy)phenyl)-2,3-dihydro-1H-imidazo[4,5-c]pyridin-1-yl)phenyl)acrylamide]	0.1 to 1
C=CC(=O)N1CC[C@@H](n2c(=O)n(-c3ccc(OCc4cccc(C(F)(F)F)c4)c(Cl)c3)c3cnccc32)C1 [Example 200, (R)-1-(1-acryloylpyrrolidin-3-yl)-3-(3-chloro-4-((3-(trifluoromethyl)benzyl)oxy)phenyl)-1H-imidazo[4,5-c]pyridine-2(3H)-one]	0.1 to 1
C=CC(=O)N1CC[C@@H](n2c(=O)n(-c3ccc(OCc4ccc(F)c(F)c4)c(Cl)c3)c3cnccc32)C1 [Example 201, (R)-1-(1-acryloylpyrrolidin-3-yl)-3-(3-chloro-4-((3,4-difluorobenzyl)oxy)phenyl)-1H-imidazo[4,5-c]pyridine-2(3H)-one]	0.01 to 0.1
C=CC(=O)N1CC[C@@H](n2c(=O)n(-c3ccc(OCc4ccc(F)cc4F)c(Cl)c3)c3cnccc32)C1 [Example 202, (R)-1-(1-acryloylpyrrolidin-3-yl)-3-(3-chloro-4-((2,4-difluorobenzyl)oxy)phenyl)-1H-imidazo[4,5-c]pyridin-2(3H)-one]	0.1 to 1
C=CC(=O)N1CC[C@@H](n2c(=O)n(-c3ccc(OCc4ccccc4C(F)(F)F)c(Cl)c3)c3cnccc32)C1 [Example 203, (R)-1-(1-acryloylpyrrolidin-3-yl)-3-(3-chloro-4-((2-(trifluoromethyl)benzyl)oxy)phenyl)-1H-imidazo[4,5-c]pyridin-2(3H)-one]	0.1 to 1
C=CC(=O)N1CC[C@@H](n2c(=O)n(-c3ccc(OCc4ccccn4)c(Cl)c3)c3cnccc32)C1 [Example 204, (R)-1-(1-acryloylpyrrolidin-3-yl)-3-(3-chloro-4-(pyridin-2-ylmethoxy)phenyl)-1H-imidazo[4,5-c]pyridin-2(3H)-one]	0.1 to 1
C=CC(=O)N1CC[C@@H](n2c(=O)n(-c3ccc(OCc4cc(F)cc(F)c4)c(Cl)c3)c3cnccc32)C1 [Example 207, (R)-1-(1-acryloylpyrrolidin-3-yl)-3-(3-chloro-4-((3,5-difluorobenzyl)oxy)phenyl)-1H-imidazo[4,5-c]pyridin-2(3H)-one]	0.1 to 1
C=CC(=O)N1CC[C@@H](n2c(=O)n(-c3ccc(OCc4ccc(Cl)cc4Cl)c(Cl)c3)c3cnccc32)C1 [Example 208, (R)-1-(1-acryloylpyrrolidin-3-yl)-3-(3-chloro-4-((2,4-dichlorobenzyl)oxy)phenyl)-1H-imidazo[4,5-c]pyridin-2(3H)-one]	0.1 to 1
C=CC(=O)N1CC[C@@H](n2c(=O)n(-c3ccc(OCc4ccccc4C(F)(F)F)cc3)c3cnccc32)C1 [Example 210, (R)-1-(1-acryloylpyrrolidin-3-yl)-3-(4-((2-(trifluoromethyl)benzyl)oxy)phenyl)-1H-imidazo[4,5-c]pyridine-2(3H)-one]	0.01 to 0.1
C=CC(=O)N1CC[C@@H](n2c(=O)n(-c3ccc(OCc4ccc(C(F)(F)F)cc4)cc3)c3cnccc32)C1 [Example 212, (R)-1-(1-acryloylpyrrolidin-3-yl)-3-(4-((4-(trifluoromethyl)benzyl)oxy)phenyl)-1H-imidazo[4,5-c]pyridin-2(3H)-one]	0.1 to 1
C=CC(=O)N1CC[C@@H](n2c(=O)n(-c3ccc(OCc4ccccn4)cc3)c3cnccc32)C1 [Example 213, (R)-1-(1-acryloylpyrrolidin-3-yl)-3-(4-(pyridin-2-ylmethoxy)phenyl)-1H-imidazo[4,5-c]pyridin-2(3H)-one]	1 to 10

Further lines, results first:

IC50 [µM]	SMILES
0.1 to 1	CN(C/C=C/C(=O)N1CC[C@@H](n2c(=O)n(-c3ccc(Oc4ccccc4)cc3)c3cnccc32)C1)C1CC1 [Example 187, (R,E)-1-(1-(4-(cyclopropyl(methyl)amino)but-2-enoyl)pyrrolidin-3-yl)-3-(4-phenoxyphenyl)-1H-imidazo[4,5-c]pyridin-2(3H)-one]
0.1 to 1	CN(C/C=C/C(=O)N1CCC[C@@H](n2c(=O)n(-c3ccc(Oc4ccccc4)cc3)c3cnccc32)C1)C1CC1 [Example 188, (R,E)-1-(1-(4-(cyclopropyl(methyl)amino)but-2-enoyl)piperidin-3-yl)-3-(4-phenoxyphenyl)-1H-imidazo[4,5-c]pyridin-2(3H)-one]
≤ 0.01	C=CC(=O)N1CC[C@@H](n2c(=O)n(-c3ccc(Oc4cccc(OC)c4F)cc3)c3cnccc32)C1 [Example 191, (R)-1-(1-acryloylpyrrolidin-3-yl)-3-(4-(2-fluoro-3-methoxyphenoxy)phenyl)-1H-imidazo[4,5-c]pyridin-2(3H)-one]
1 to 10	O=C(O)C(=O)N1CCCC(n2c(=O)n(-c3ccc(Oc4ccccc4)cc3)c3cnccc32)C1 (stereo not shown) [Example 192, 2-oxo-2-(3-(2-oxo-3-(4-phenoxyphenyl)-2,3-dihydro-1H-imidazo[4,5-c]pyridin-1-yl)piperidin-1-yl)acetic acid]
1 to 10	O=C(O)C1CCCC(n2c(=O)n(-c3ccc(Oc4ccccc4)cc3)c3cnccc32)C1 (stereo not shown) [Example 193, 3-(2-oxo-3-(4-phenoxyphenyl)-2,3-dihydro-1H-imidazo[4,5-c]pyridin-1-yl)cyclohexanecarboxylic acid]
≥ 10	NC(=O)C(=O)N1CCCC(n2c(=O)n(-c3ccc(Oc4ccccc4)cc3)c3cnccc32)C1 (stereo not shown) [Example 194, 2-oxo-2-(3-(2-oxo-3-(4-phenoxyphenyl)-2,3-dihydro-1H-imidazo[4,5-c]pyridin-1-yl)piperidin-1-yl)acetamide]
0.01 to 0.1	C=CC(=O)Nc1cccc(-n2c(=O)n(-c3ccc(OCc4cc(F)c(F)cc4F)cc3)c3cnccc32)c1 [Example 195, N-(3-(2-oxo-3-(4-((2,4,5-trifluorobenzyl)oxy)phenyl)-2,3-dihydro-1H-imidazo[4,5-c]pyridin-1-yl)phenyl)acrylamide]
0.1 to 1	C=CC(=O)N1CC[C@@H](n2c(=O)n(-c3ccc(OCc4ccccc4)c(Cl)c3)c3cnccc32)C1 [Example 197, (R)-1-(1-acryloylpyrrolidin-3-yl)-3-(4-(benzyloxy)-3-chlorophenyl)-1H-imidazo[4,5-c]pyridin-2(3H)-one]
0.1 to 1	C=CC(=O)N1CC[C@@H](n2c(=O)n(-c3ccc(OCc4ccc(Cl)c(Cl)c4)cc3)c3cnccc32)C1 [Example 198, (R)-1-(1-acryloylpyrrolidin-3-yl)-3-(4-((3,4-dichlorobenzyl)oxy)phenyl)-1H-imidazo[4,5-c]pyridin-2(3H)-one]
0.1 to 1	C=CC(=O)N1CC[C@@H](n2c(=O)n(-c3ccc(OCc4ccc(F)cc4F)cc3)c3cnccc32)C1 [Example 199, (R)-1-(1-acryloylpyrrolidin-3-yl)-3-(4-((2,4-difluorobenzyl)oxy)phenyl)-1H-imidazo[4,5-c]pyridin-2(3H)-one]
0.1 to 1	C=CC(=O)N1CC[C@@H](n2c(=O)n(-c3ccc(OCc4ccc(C(F)(F)F)cc4)c(Cl)c3)c3cnccc32)C1 [Example 205, (R)-1-(1-acryloylpyrrolidin-3-yl)-3-(3-chloro-4-((4-(trifluoromethyl)benzyl)oxy)phenyl)-1H-imidazo[4,5-c]pyridin-2(3H)-one]
0.1 to 1	C=CC(=O)N1CC[C@@H](n2c(=O)n(-c3ccc(OCc4cc(F)ccc4F)c(Cl)c3)c3cnccc32)C1 [Example 206, (R)-1-(1-acryloylpyrrolidin-3-yl)-3-(3-chloro-4-((2,5-difluorobenzyl)oxy)phenyl)-1H-imidazo[4,5-c]pyridin-2(3H)-one]
0.1 to 1	C=CC(=O)N1CC[C@@H](n2c(=O)n(-c3ccc(OCc4cc(F)ccc4F)cc3)c3cnccc32)C1 [Example 209, (R)-1-(1-acryloylpyrrolidin-3-yl)-3-(4-((2,5-difluorobenzyl)oxy)phenyl)-1H-imidazo[4,5-c]pyridin-2(3H)-one]
0.1 to 1	C=CC(=O)N1CC[C@@H](n2c(=O)n(-c3ccc(OCc4cccc(C(F)(F)F)c4)cc3)c3cnccc32)C1 [Example 211, (R)-1-(1-acryloylpyrrolidin-3-yl)-3-(4-((3-(trifluoromethyl)benzyl)oxy)phenyl)-1H-imidazo[4,5-c]pyridin-2(3H)-one]
1 to 10	C=CC(=O)N1CC[C@@H](n2c(=O)n(-c3ccc(OCc4ccc(F)c(F)c4)cc3)c3cnccc32)C1 [Example 214, (R)-1-(1-acryloylpyrrolidin-3-yl)-3-(4-((3,4-difluorobenzyl)oxy)phenyl)-1H-imidazo[4,5-c]pyridin-2(3H)-one]
1 to 10	C=CC(=O)N1CC[C@@H](n2c(=O)n(-c3ccc(OCc4ccc(Cl)c(Cl)c4)c(Cl)c3)c3cnccc32)C1 [Example 215, (R)-1-(1-acryloylpyrrolidin-3-yl)-3-(3-chloro-4-((3,4-dichlorobenzyl)oxy)phenyl)-1H-imidazo[4,5-c]pyridin-2(3H)-one]
0.1 to 1	C=CC(=O)N1CC[C@@H](n2c(=O)n(-c3ccc(OCc4ccccc4F)cc3)c3cnccc32)C1 [Example 216, (R)-1-(1-acryloylpyrrolidin-3-yl)-3-(4-((2-fluorobenzyl)oxy)phenyl)-1H-imidazo[4,5-c]pyridin-2(3H)-one]
0.1 to 1	C=CC(=O)Nc1cccc(-n2c(=O)n(-c3ccc(OCc4ccccc4F)c(F)c3)c3cnccc32)c1 [Example 217, N-(3-(3-(3-fluoro-4-((2-fluorobenzyl)oxy)phenyl)-2-oxo-2,3-dihydro-1H-imidazo[4,5-c]pyridin-1-yl)phenyl)acrylamide]
